Where two headings read alike, the source gives them in different places. Where a SMILES comes first, the peptide text is derived from it. [ ]: non-standard residue; d: D form. The star is where a group is joined. DOTA = O=C(O)CN1CCN(CC(=O)O)CCN(CC(=O)*)CCN(CC(=O)O)CC1; Butanoyl(4-(4-MePh)) = Cc1ccc(CCCC(=O)*)cc1; Nle = CCCC[C@H](N)C(=O)O; Ahx = NCCCCCC(=O)O
Key:
[1] = system: pancreatic tumor PDX models; set-up: method as in PMID 34593598; conditions: cited from earlier work
A431-CCK2R (+) tumors = assay: Therapeutic responses to Lu-177-labeled CCK2R analogs in CCK2R-expressing cancer-bearing mice; assay type: in vivo; conditions: 200 μCi intravenously
Procedure: (§1) To generate A431-CCK2R (+) and A431-CCK2R (−) tumor-bearing mice models, mice (3 per group) were inoculated subcutaneously with 6 × 10^6 cells, which were injected into the inner right back leg for A431-CCK2R (+) tumors and the left back leg for A431-CCK2R (−) tumors, respectively. These xenografts were monitored until the tumor volume reached approximately 200–500 mm^3 [57]. The mice were then randomized to subgroups for further experiments. The formula for calculating tumor volume (V) is V = 4/3πr^3.
(§2) We investigated therapeutic responses in mice receiving [^177Lu]Lu-DOTA-PP-F11N, [^177Lu]Lu-DOTA-INER-PP-F11N-1, or [^177Lu]Lu-DOTA-INER-PP-F11N-2. A431-CCK2R (+) and A431-CCK2R (−) cells were implanted subcutaneously into the right and left inner hind legs of NOD/SCID mice. Once the tumors reached a volume of 200–500 mm^3, the mice were intravenously injected with either 200 μCi of [^177Lu]Lu-DOTA-PP-F11N, [^177Lu]Lu-DOTA-INER-PP-F11N-1, [^177Lu]Lu-DOTA-INER-PP-F11N-2, or PBS (as a non-radioactive control). The NanoSPECT/CT® plus scanner system (Mediso Medical Imaging Systems; Budapest, Hungary) was utilized to detect and image tumors in the mouse models. Tumor volumes were measured twice a week for 4 weeks.

[2] = system: A431-CCK2R (−)/A431-CCK2R (+) tumor-bearing mice; assay: NanoSPECT/CT imaging of tumor-bearing mice; assay type: in vivo
Procedure: as §1
The NanoSPECT/CT® plus scanner system (Mediso Medical Imaging Systems; Budapest, Hungary) was utilized to detect in vivo tumors in the in vivo animal models. Both A431-CCK2R (+) and A431-CCK2R (−) cancer cells were inoculated subcutaneously into the inner right leg and left back leg of the mice. Radiopharmaceuticals—[^111In]In-DOTA-PP-F11N, [^111In]In-DOTA-INER-PP-F11N-1, and [^111In]In-DOTA-INER-PP-F11N-2 (1 mCi)—were injected once the mean tumor volume reached approximately 200–500 mm^3. Inhalant (1–2% isoflurane) was used to anesthetize the mice during imaging acquisition. X-ray CT images and SPECT images were taken 4, 24, and 48 h after tail-vein injection. NanoSPECT imaging was acquired using nine multi-pinhole gamma detectors with high-resolution collimators. The energy window was set at 171 and 245 KeV ± 10%, the image size was set at 256 × 256, and the field of view was set at 60 mm × 100 mm.
For Lu-177, only 208 keV photons were used for imaging, with an energy window set at 208 keV ± 10%. Although Lu-177 also emits lower abundance photons at 113 keV, the 208 keV photon provides better image quality due to reduced scatter and higher energy resolution. Therefore, the gamma camera energy windows were specifically tailored to the photon emission profiles of each radionuclide to ensure optimal detection efficiency and image accuracy.
as §2

[3] = Biodistribution study in tumor-bearing mice; assay type: in vivo; conditions: mouse, intravenous, total radioactivity, 72 h after tail-vein injection, tumor-bearing mice
Procedure: as §1
Mice were sacrificed via CO2 asphyxiation 72 h after intravenous injection of 50–100 μCi (50–100 μL) of radiolabeled DOTA-PP-F11N, DOTA-INER-PP-F11N-1, or DOTA-INER-PP-F11N-2 [58]. Tumors and organs of interest were collected for further pathological examinations. The PerkinElmer 2480 Automatic Gamma Counter (PerkinElmer, Waltham, MA, USA) was used to measure radioactivity; the data are presented as the percentage injected dose per gram of tissue (%ID/g).

[4] = Metabolic stability analysis (radio-HPLC) in PBS at 4 °C or FBS at 37 °C; assay type: in vitro ADME
Procedure: DOTA-PP-F11N, DOTA-INER-PP-F11N-1, and DOTA-INER-PP-F11N-2 were labeled with In-111 and Lu-177 for further experiments. The detection of free In-111 after ITLC extension was defined as 0% radiolabeling efficiency. […]
To measure the labeling efficiency, ITLC was performed on glass microfiber chromatography paper impregnated with a silica gel (Agilent Technologies, Santa Clara, CA, USA) as described previously. Briefly, the ITLC sheets were developed with 10% methanol as solvent (Rf free Lu-177 = 0, Rf Lu-177-labeled compounds = 1) and measured using a radioactive scanner (AR-2000 radio-TLC […] Imaging Scanner, Bioscan, France). The sample was mixed with acetonitrile at a 1:1 (v/v) ratio, followed by centrifugation at 16,000× g for 5 min. The resulting supernatant was subsequently analyzed using HPLC with UV (220[…]) and radio detector with a Zorbax SB-C18 column (Agilent Technologies, Santa Clara, CA, USA). The flow rate was 0.8 mL/min, with the gradient mobile phase going from 90% A […] buffer (0.1% TFA in water) and 10% B buffer (0.1% TFA in acetonitrile) to 90% B buffer […] within 20 min.

A431-CCK2R (+) cells = assay: In vitro binding and internalization assay, A431-CCK2R (+) cells; assay type: cell-based; set-up: surface binding activity / internalization activity: concentration or dose not given beside the values; conditions: for internalization activity / surface binding activity: A431-CCK2R (+) cells, 37 °C
Procedure: (§3) In vitro binding and internalization activities were measured using a gamma counter (WIZARD 1480, Perkin-Elmer). Briefly, A431-CCK2R (+) and A431-CCK2R (−) cells were seeded on 24-well plates (1 × 10^5 cells/well, Corning, NY, USA) for 12 h. The plated cells were treated with 30 ± 10 GBq/µmol of [^177Lu]Lu-DOTA-PP-F11N, [^177Lu]Lu-DOTA-INER-PP-F11N-1, or [^177Lu]Lu-DOTA-INER-PP-F11N-2 (1 mL/well) and then incubated at 37 °C for either 1 or 4 h. After incubation, the medium was collected, and the cells were then washed with ice-cold buffer. The medium and washed PBS were collected in tube 0. The washed cells were treated with glycine–HCl buffer (0.1 M, pH 3.0) and incubated for 10 min. After incubation, cells were washed again with glycine–HCl buffer. Both glycine-HCl buffer solutions were collected in tube 1. The washed cells were treated with 1 N NaOH (1 mL/well) and incubated for 10 min for cell lysis. After incubation, the cells were washed once with 1 N NaOH. The cell lysate solution was collected in tube 2. All tubes were analyzed using a gamma counter to detect radioactivity. Data were obtained from at least three independent experiments. The respective formulae for in vitro surface binding activity and internalization were as follows:Surface binding = tube 1/(tube 0 + tube 1 + tube 2) × 100%.Internalization = tube 2/(tube 0 + tube 1 + tube 2) × 100%.

A431-CCK2R (−) cells = assay: In vitro binding and internalization assay, A431-CCK2R (−) cells; assay type: cell-based; conditions: 37 °C
Procedure: as §3

[5] = Histopathological examinations (H&E) of mice after radiolabeled drug administration; assay type: in vivo; conditions: light microscopy
Source text: To investigate the pathological alterations in tumor-bearing mice receiving radiopharmaceuticals, […] tissues, including tumors, heart, liver, and kidneys, were collected. The specimens were first fixed using 10% buffered neutral formalin and then embedded in paraffin. Sections of 3–5 μm thickness were stained with H&E and examined using light microscopy (40 × and 20 ×).

clearance of radiotracer accumulation in the urinary bladder, time after injection ([2]; NanoSPECT/CT) [h] | SMILES | tumor uptake and retention [1] | tumor volume at D23 (A431-CCK2R (+) tumors) [mm^3] | tissue uptake at 72 h ([3]; kidneys, read-out: radiotracer accumulation in the kidneys) [%ID/g] | tissue uptake at 72 h ([3]; tumor (A431-CCK2R (+)), read-out: tumor uptake of radiopharmaceuticals) [%ID/g] | metabolic stability ([4]; 4 °C PBS, 144 h after Lu-177 labeling) | metabolic stability ([4]; Lu-177-labeled, 37 °C FBS, 144 h) [%] | internalization activity (A431-CCK2R (+) cells; 1 h) [%] | surface binding activity (A431-CCK2R (+) cells; 1 h) [%] | internalization activity (A431-CCK2R (+) cells; 4 h) [%] | surface binding activity (A431-CCK2R (+) cells; 4 h) [%] | enhancement of internalization activity compared with PP-F11N (A431-CCK2R (+) cells; A431 CCK2R (+) cells, compared with conventional [^177Lu]Lu-DOTA-PP-F11N) [%] | internalization activity (A431-CCK2R (−) cells; 1 h) [%IA/106 cells] | surface binding activity (A431-CCK2R (−) cells; 1 h) [%IA/106 cells] | internalization activity (A431-CCK2R (−) cells; 4 h) [%IA/106 cells] | radioactivity within the kidneys on NanoSPECT/CT ([2]; compared with Lu-177-labeled PP-F11N over the same period) | radiotracer accumulation in the tumor region on NanoSPECT/CT ([2]; tail-vein injection, Lu-177-labeled) | histopathological changes in the kidneys [5] | histopathological changes in the liver and heart [5]
– | Cc1cc(-c2ccc(NC(=O)CCCC(=O)N[C@@H](CCCCNC(=O)CN3CCN(CC(=O)O)CCN(CC(=O)O)CCN(CC(=O)O)CC3)C(=O)N3CCN(CCCOc4ccc5nccc(C(=O)NCC(=O)N6CC(F)(F)C[C@H]6C#N)c5c4)CC3)c(C)c2)ccc1N=Nc1ccc2c(S(=O)(=O)O)cc(S(=O)(=O)O)c(N)c2c1O [TEFAPI-07] | significantly enhanced tumor uptake and retention | – | – | – | – | – | – | – | – | – | – | – | – | – | – | – | – | –
≤ 24 | O=C([O-])CN1CCN(CC(=O)[O-])CCN(CC(=O)[O-])CCN(CC(=O)[O-])CC1.[177Lu+3] [[^177Lu]Lu-DOTA, reference compound] | – | 3237.10 ± 846.25 | – | – | – | – | – | – | – | – | – | – | – | – | – | – | – | –
– | CCCC[C@H](NC(=O)[C@H](Cc1c[nH]c2ccccc12)NC(=O)CNC(=O)[C@H](Cc1ccc(O)cc1)NC(=O)[C@H](C)NC(=O)[C@@H](CCC(=O)O)NC(=O)[C@@H](CCC(=O)O)NC(=O)[C@@H](CCC(=O)O)NC(=O)[C@@H](CCC(=O)O)NC(=O)[C@@H](CCC(=O)O)NC(=O)[C@@H](CCC(=O)O)NC(=O)CCCCCNC(=O)[C@H](CCCCNC(=O)CCCc1ccc(C)cc1)NC(=O)CN1CCN(CC(=O)O)CCN(CC(=O)O)CCN(CC(=O)O)CC1)C(=O)N[C@@H](CC(=O)O)C(=O)N[C@@H](Cc1ccccc1)C(N)=O [[^177Lu]Lu-DOTA-INER-PP-F11N-2, metal not drawn] ({DOTA}-K(Butanoyl(4-(4-MePh)))[Ahx][dE][dE][dE][dE][dE][dE]AYGW[Nle]DF-NH2) | – | 1162.60 ± 275.92 | 7.4 ± 1.5 | 0.88 ± 0.25 | more than 95% | > 99 | 41.58 ± 3.46 | 5.51 ± 0.45 | 81.26 ± 7.27 | 8.11 ± 2.65 | 13.7 | 0.25 ± 0.04 | 0.59 ± 0.01 | 0.15 ± 0.18 | significantly lower | imaging of the tumor was limited | no significant histopathological changes | no significant histopathological changes

From publication PMC12294753, “Development of INER-PP-F11N as the Peptide-Radionuclide Conjugate Drug Against CCK2 Receptor-Overexpressing Tumors” (International Journal of Molecular Sciences, 2025)
